Data reported in PubChem BioAssay AID330 (DTP/NCI, 2004).
Values joined by “and” are separate entries in the source; they are usually repeats but may differ in a detail not shown here. Equal entries are not always repeated. Toxic doses and inconclusive results are not listed. Rule for the calls: active = survival T/C of 150% or more; inactive = T/C below 125% in these data.

Test system: P388 leukemia ip, CD2F1 mice, survival T/C
Assay: NCI In Vivo Anticancer Drug Screen. Data for tumor model P388 Leukemia (intraperitoneal) in CD2F1 (CDF1) mice
Settings: endpoint: median survival time, higher = longer survival
Method in brief: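 Mice carrying the transplanted tumor received test compound or vehicle. Survival was recorded in each group, and the value is the treated-group measurement divided by that of the vehicle-treated control group.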

[1] = dose: 50.0 mg/kg/injection, schedule: Q01DX005 (ip), vehicle: Klucel (hydroxypropylcellulose) (HPC)
[2] = dose: 100.0 mg/kg/injection, schedule: Q01DX005 (ip), vehicle: Klucel (hydroxypropylcellulose) (HPC)
[3] = dose: 50.0 mg/kg/injection, schedule: Q01DX009 (ip), vehicle: Klucel (hydroxypropylcellulose) (HPC)
[4] = dose: 100.0 mg/kg/injection, schedule: Q01DX009 (ip), vehicle: Klucel (hydroxypropylcellulose) (HPC)
[5] = dose: 200.0 mg/kg/injection, schedule: Q01DX009 (ip), vehicle: Klucel (hydroxypropylcellulose) (HPC)
[6] = dose: 6.25 mg/kg/injection, schedule: Q01DX009 (ip), vehicle: water
[7] = dose: 12.5 mg/kg/injection, schedule: Q01DX009 (ip), vehicle: water
[8] = dose: 12.5 mg/kg/injection, schedule: Q01DX009 (ip), vehicle: saline with Tween-80
[9] = dose: 25.0 mg/kg/injection, schedule: Q01DX009 (ip), vehicle: saline with Tween-80
[10] = dose: 50.0 mg/kg/injection, schedule: Q01DX009 (ip), vehicle: saline with Tween-80
[11] = dose: 100.0 mg/kg/injection, schedule: Q01DX009 (ip), vehicle: saline with Tween-80
[12] = dose: 200.0 mg/kg/injection, schedule: Q01DX009 (ip), vehicle: saline with Tween-80

Measured: T/C

CC1(C)[C@H](C(=O)O)N2C(=O)[C@@H](NC(=O)C(c3ccccc3)c3ccccc3)[C@H]2S1=O (some centres not stated)
inactive: dose: 25.0 mg/kg/injection, schedule: Q01DX005 (ip), vehicle: Klucel (hydroxypropylcellulose) (HPC) 101 % of control | [1] 99 % of control | [2] 101 % of control

O=C(NC1(Sc2ccccc2)CC1)c1ccc(Cl)cc1
inactive: dose: 15.0 mg/kg/injection, schedule: Q01DX005 (ip), vehicle: Klucel (hydroxypropylcellulose) (HPC) 98 % of control | dose: 30.0 mg/kg/injection, schedule: Q01DX005 (ip), vehicle: Klucel (hydroxypropylcellulose) (HPC) 88 % of control | dose: 60.0 mg/kg/injection, schedule: Q01DX005 (ip), vehicle: Klucel (hydroxypropylcellulose) (HPC) 88 % of control

CN(C)CCCNCC#CCNCCCN(C)C
inactive: dose: 50.0 mg/kg/injection, schedule: Q01DX009 (ip), vehicle: saline 100 % of control | dose: 100.0 mg/kg/injection, schedule: Q01DX009 (ip), vehicle: saline 105 % of control | dose: 200.0 mg/kg/injection, schedule: Q01DX009 (ip), vehicle: saline 105 % of control

Cc1ccc(C(=O)N/N=C/C(=O)O)cc1
inactive: dose: 12.5 mg/kg/injection, schedule: Q01DX009 (ip), vehicle: Klucel (hydroxypropylcellulose) (HPC) 94 % of control | dose: 25.0 mg/kg/injection, schedule: Q01DX009 (ip), vehicle: Klucel (hydroxypropylcellulose) (HPC) 95 % of control | [3] 94 % of control | [4] 88 % of control | [5] 88 % of control

COc1nc2ccccc2c2ccnn12
inactive: dose: 4.0 mg/kg/injection, schedule: Q01DX009 (ip), vehicle: saline with Tween-80 106 % of control | dose: 8.0 mg/kg/injection, schedule: Q01DX009 (ip), vehicle: saline with Tween-80 106 % of control | dose: 16.0 mg/kg/injection, schedule: Q01DX009 (ip), vehicle: saline with Tween-80 109 % of control

C[C@]12C=C[C@@]3(CC[C@@H]4[C@](C)(CO)[C@H](O)CC[C@@]4(C)[C@@H]3CC1)C2
inactive: dose: 3.5 mg/kg/injection, schedule: Q01DX005 (ip), vehicle: Klucel (hydroxypropylcellulose) (HPC) 89 % of control | dose: 7.0 mg/kg/injection, schedule: Q01DX005 (ip), vehicle: Klucel (hydroxypropylcellulose) (HPC) 100 % of control | dose: 14.0 mg/kg/injection, schedule: Q01DX005 (ip), vehicle: Klucel (hydroxypropylcellulose) (HPC) 92 % of control | dose: 28.0 mg/kg/injection, schedule: Q01DX005 (ip), vehicle: Klucel (hydroxypropylcellulose) (HPC) 96 % of control

Cc1ccc(S(=O)(=O)N2C(=O)CCC2=O)cc1
inactive: dose: 100.0 mg/kg/injection, schedule: Q04DX003 (ip), vehicle: Klucel (hydroxypropylcellulose) (HPC) 106 % of control | dose: 100.0 mg/kg/injection, schedule: Q04DX003 (ip), vehicle: saline with Tween-80 105 % of control | dose: 200.0 mg/kg/injection, schedule: Q04DX003 (ip), vehicle: Klucel (hydroxypropylcellulose) (HPC) 120 % of control | dose: 200.0 mg/kg/injection, schedule: Q04DX003 (ip), vehicle: saline with Tween-80 100 % of control | dose: 400.0 mg/kg/injection, schedule: Q04DX003 (ip), vehicle: saline with Tween-80 110 % of control

C/C=C(\C)C(=O)O[C@@H]1c2cc3c(cc2-c2c(cc(OC)c(OC)c2OC)[C@@H]2C(=O)OC[C@@H]12)OCO3
inactive: dose: 1.25 mg/kg/injection, schedule: Q01DX009 (ip), vehicle: Klucel (hydroxypropylcellulose) (HPC) 92 % of control | dose: 2.5 mg/kg/injection, schedule: Q01DX009 (ip), vehicle: Klucel (hydroxypropylcellulose) (HPC) 111 % of control | dose: 5.0 mg/kg/injection, schedule: Q01DX009 (ip), vehicle: Klucel (hydroxypropylcellulose) (HPC) 113 % of control | dose: 10.0 mg/kg/injection, schedule: Q01DX009 (ip), vehicle: Klucel (hydroxypropylcellulose) (HPC) 103 % of control

O=C(O)c1cccc([N+](=O)[O-])c1O
inactive: [3] 102 % of control | [4] 105 % of control | [5] 101 % of control | dose: 400.0 mg/kg/injection, schedule: Q01DX009 (ip), vehicle: Klucel (hydroxypropylcellulose) (HPC) 100 % of control

CC(CNc1nc(Nc2ccc(Cl)c(Cl)c2)nc(C(Cl)(Cl)Cl)n1)N(C)C (configuration not stated)
inactive: dose: 3.13 mg/kg/injection, schedule: Q01DX009 (ip), vehicle: distilled water + Tween-80 109 % of control | dose: 3.13 mg/kg/injection, schedule: Q01DX009 (ip), vehicle: water 90 % of control | dose: 6.25 mg/kg/injection, schedule: Q01DX009 (ip), vehicle: distilled water + Tween-80 118 % of control | [6] 99 % of control | dose: 12.5 mg/kg/injection, schedule: Q01DX009 (ip), vehicle: distilled water + Tween-80 98 % of control and 120 % of control | [7] 99 % of control | dose: 25.0 mg/kg/injection, schedule: Q01DX009 (ip), vehicle: distilled water + Tween-80 113 % of control and 94 % of control | dose: 25.0 mg/kg/injection, schedule: Q01DX009 (ip), vehicle: water 101 % of control | dose: 50.0 mg/kg/injection, schedule: Q01DX009 (ip), vehicle: distilled water + Tween-80 109 % of control and 94 % of control | dose: 50.0 mg/kg/injection, schedule: Q01DX009 (ip), vehicle: water 101 % of control

COc1ccccc1/C=C(\C(=O)O)c1ccccc1
inactive: [1] 96 % of control | [2] 91 % of control

Cc1ccc(/C=C/C(=N/Nc2ccccc2)C(C)CN(C)C)cc1 (configuration not stated)
inactive: dose: 60.0 mg/kg/injection, schedule: Q01DX005 (ip), vehicle: saline with Tween-80 100 % of control | dose: 120.0 mg/kg/injection, schedule: Q01DX005 (ip), vehicle: saline with Tween-80 89 % of control

COC(=O)C1=NNc2ccccc2C(OC(C)=O)C1C (configuration not stated)
inactive: dose: 100.0 mg/kg/injection, schedule: Q01DX001 (ip), vehicle: saline with Tween-80 90 % of control | dose: 200.0 mg/kg/injection, schedule: Q01DX001 (ip), vehicle: saline with Tween-80 96 % of control | dose: 400.0 mg/kg/injection, schedule: Q01DX001 (ip), vehicle: saline with Tween-80 97 % of control

O=C1NS(=O)(=O)Oc2c1ccc1ccccc21
inactive: [8] 108 % of control | [9] 99 % of control | [10] 96 % of control | [11] 96 % of control | [12] 110 % of control

Clc1cccc2nc(-c3ccccn3)n(CCc3ccccn3)c12
inactive: [1] 96 % of control | [2] 100 % of control | dose: 200.0 mg/kg/injection, schedule: Q01DX005 (ip), vehicle: Klucel (hydroxypropylcellulose) (HPC) 100 % of control

CCCCS/C=C1\CCc2cc(OC)ccc2C12CC1=C(CCc3cc(OC)ccc31)C(SCCCC)C2 (configuration not stated)
inactive: [10] 94 % of control | [11] 88 % of control | [12] 87 % of control

O=c1[nH]nc(-c2ccc3c(c2)OCO3)o1
inactive: dose: 32.5 mg/kg/injection, schedule: Q01DX009 (ip), vehicle: Klucel (hydroxypropylcellulose) (HPC) 105 % of control | dose: 65.0 mg/kg/injection, schedule: Q01DX009 (ip), vehicle: Klucel (hydroxypropylcellulose) (HPC) 95 % of control | dose: 130.0 mg/kg/injection, schedule: Q01DX009 (ip), vehicle: Klucel (hydroxypropylcellulose) (HPC) 95 % of control

C[n+]1c2ccccc2c2c3c(cccc31)C(=O)c1cc(Cl)ccc1-2 (tested in a mixture with another compound)
inactive: dose: 3.12 mg/kg/injection, schedule: Q01DX009 (ip), vehicle: water 106 % of control | [6] 98 % of control | [7] 98 % of control

Cc1c(N=Nc2cccc(F)c2)c(-c2ccccc2)nn1C(N)=S
inactive: dose: 12.5 mg/kg/injection, schedule: Q01DX005 (ip), vehicle: saline with Tween-80 95 % of control | dose: 25.0 mg/kg/injection, schedule: Q01DX005 (ip), vehicle: saline with Tween-80 95 % of control | dose: 50.0 mg/kg/injection, schedule: Q01DX005 (ip), vehicle: saline with Tween-80 101 % of control

CC(C(=O)O)c1ccc2c(c1)[nH]c1ccc(Cl)cc12 (configuration not stated)
inactive: dose: 6.25 mg/kg/injection, schedule: Q01DX009 (ip), vehicle: saline with Tween-80 106 % of control | [8] 106 % of control | [9] 105 % of control

COC(=O)c1c(C(=O)OC)c(Nc2ccccc2)c2ccccc2c1O
inactive: dose: 3.12 mg/kg/injection, schedule: Q01DX005 (ip), vehicle: Klucel (hydroxypropylcellulose) (HPC) 115 % of control | dose: 6.25 mg/kg/injection, schedule: Q01DX005 (ip), vehicle: Klucel (hydroxypropylcellulose) (HPC) 107 % of control | dose: 12.5 mg/kg/injection, schedule: Q01DX005 (ip), vehicle: Klucel (hydroxypropylcellulose) (HPC) 99 % of control
